IC50 data for 3 molecules are collected here from BindingDB's records for doi:10.3109/14756366.2012.670806 (Jeju National University, 2013).

pIC50: −log10 of the molar value.

The target in the experiment is T1, Polyphenol oxidase 1 (White button mushroom, UniProt Q00024).
T1 sequence (Q00024 whole entry): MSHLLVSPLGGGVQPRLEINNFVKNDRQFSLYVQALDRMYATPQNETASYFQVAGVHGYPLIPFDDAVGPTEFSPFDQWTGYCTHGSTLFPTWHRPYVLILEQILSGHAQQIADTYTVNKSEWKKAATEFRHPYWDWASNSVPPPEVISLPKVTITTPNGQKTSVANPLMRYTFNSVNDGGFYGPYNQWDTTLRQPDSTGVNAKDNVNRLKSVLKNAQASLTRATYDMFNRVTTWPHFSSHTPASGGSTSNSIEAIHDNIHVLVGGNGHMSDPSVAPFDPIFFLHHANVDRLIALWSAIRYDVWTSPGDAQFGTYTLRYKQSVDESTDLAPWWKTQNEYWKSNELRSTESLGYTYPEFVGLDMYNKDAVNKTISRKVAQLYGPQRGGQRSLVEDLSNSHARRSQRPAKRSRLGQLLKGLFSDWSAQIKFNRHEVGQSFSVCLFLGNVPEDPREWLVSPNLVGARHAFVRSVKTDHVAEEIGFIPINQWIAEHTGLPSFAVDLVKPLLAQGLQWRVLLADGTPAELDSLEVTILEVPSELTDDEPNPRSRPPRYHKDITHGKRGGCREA
As to the kind of experiment: Tyrosinase Inhibition Assay. To be noted: pH 6.8; 37 °C. The procedure:
Briefly, mushroom tyrosinase (1250 units/mL) and 2 mM L-tyrosine (0.07 mL) were added to a solution of phosphate buffer (0.1 M, pH 6.8, 0.09 mL) containing the test sample. The test mixture (0.2 mL) was incubated for 10 min at 37°C and the absorption due to the formation of dopachrome was monitored at 475 nm. The same mixture except for the plant extract was used as a control. Arbutin (hydroquinone-O-β-glucopyranoside) was used as a positive control. Each treatment was replicated three times.
Molecule `CC1OC(Oc2c(-c3ccc(O)cc3)oc3cc(O)cc(O)c3c2=O)C(OC(=O)/C=C/c2ccc(O)cc2)C(O)C1O` (stereo not drawn) [Neolitsea aciculata extract, 6] showed a pIC50 of 4.10.

`CC1OC(Oc2c(-c3ccc(O)cc3)oc3cc(O)cc(O)c3c2=O)C(OC(=O)/C=C/c2ccc(O)cc2)C(OC(=O)/C=C/c2ccc(O)cc2)C1O` (stereo not drawn) [Neolitsea aciculata extract, 5]: the pIC50 is 4.17. `OC[C@H]1O[C@@H](Oc2ccc(O)cc2)[C@H](O)[C@@H](O)[C@@H]1O` [4-hydroxyphenyl beta-D-glucopyranoside] showed a pIC50 of 3.49.

What is called pIC50 is the negative decadic logarithm of the IC50, by convention in mol/L.
